Measured values: ChEMBL document CHEMBL1201862, “PubChem BioAssay data set” (2004)
Calls of active or inactive are those of the source.

How the values were obtained:
[1] = alpha-synuclein stem-loop luciferase translation blockers – H4 neuroglioma cells, luminescence, confirmation (AID 1988); assay type: functional, cell-based
[2] = luciferase reporter signal suppression in cells – H4 neuroglioma cells, luminescence, dose response (AID 1990); assay type: functional, cell-based
[3] = Luminescence Cell-Based Dose Response HTS to Identify Inhibitors of 5'UTR Stem-Loop Driven Prion Protein mRNA Translation in H4 Neuroglioblastoma Cells. [Related pubchem assays: 1827 (Project Summary), 1813 (Primary HTS)]; assay type: functional
SUMO-activating enzyme = SUMO-activating enzyme (Homo sapiens, UniProt Q9UBT2); assay: blockers of UBC9-mediated SUMO conjugation – biochemical, AlphaScreen, SUMOylation inhibitor project, confirmation (AID 2018); assay type: functional
SUMO-activating enzyme, sequence (Q9UBE0 whole entry): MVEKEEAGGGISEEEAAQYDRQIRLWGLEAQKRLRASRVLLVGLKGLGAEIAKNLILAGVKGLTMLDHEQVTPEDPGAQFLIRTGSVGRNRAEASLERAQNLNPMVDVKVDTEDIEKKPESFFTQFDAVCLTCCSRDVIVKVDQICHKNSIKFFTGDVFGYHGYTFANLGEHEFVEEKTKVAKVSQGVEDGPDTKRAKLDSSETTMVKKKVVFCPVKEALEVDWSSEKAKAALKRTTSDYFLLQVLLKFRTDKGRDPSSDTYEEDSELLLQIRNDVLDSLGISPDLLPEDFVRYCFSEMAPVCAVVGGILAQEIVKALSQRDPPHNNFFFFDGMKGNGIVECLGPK
SUMO-activating enzyme, sequence (Q9UBT2 whole entry): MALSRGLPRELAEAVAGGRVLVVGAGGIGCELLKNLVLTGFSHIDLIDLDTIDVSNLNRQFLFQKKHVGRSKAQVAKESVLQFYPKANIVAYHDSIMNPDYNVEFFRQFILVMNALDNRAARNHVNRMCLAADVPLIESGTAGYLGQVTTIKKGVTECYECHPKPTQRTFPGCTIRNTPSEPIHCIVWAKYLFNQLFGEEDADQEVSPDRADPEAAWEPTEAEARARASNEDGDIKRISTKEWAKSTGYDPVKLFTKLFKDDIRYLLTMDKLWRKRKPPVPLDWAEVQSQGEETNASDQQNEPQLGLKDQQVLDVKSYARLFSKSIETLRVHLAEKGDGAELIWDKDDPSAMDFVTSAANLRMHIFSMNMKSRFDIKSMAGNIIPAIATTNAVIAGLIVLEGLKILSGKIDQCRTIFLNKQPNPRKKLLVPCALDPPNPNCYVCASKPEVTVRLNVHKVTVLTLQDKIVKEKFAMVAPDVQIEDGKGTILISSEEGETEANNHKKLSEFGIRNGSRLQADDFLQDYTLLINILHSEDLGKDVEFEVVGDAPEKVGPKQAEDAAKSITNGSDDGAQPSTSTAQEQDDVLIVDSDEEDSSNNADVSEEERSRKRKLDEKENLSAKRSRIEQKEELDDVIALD

CHO-K1 = assay: (§1) Counterscreen for antagonists of the orexin 1 receptor (OX1R; HCRTR1): Homogeneous time resolved fluorescence (HTRF)-based cell-based dose response assay to identify antagonists of the parental CHO-K1 cell line. [Related pubchem assays (depositor defined):AID434989, AID435008, AID463079, AID485270, AID492963, AID492964, AID492965, AID493232, AID504699, AID504701]; assay type: functional; settings: Cricetulus griseus
Orexin receptor type 2 [4] = biological target: T1, Orexin receptor type 2 (Homo sapiens, UniProt O43614); assay: Counterscreen assay for antagonists of the orexin 1 receptor (OX1R; HCRTR1): Fluorescence-based cell-based dose response assay for antagonists of the orexin 2 receptor (OX2R; HCRTR2), run by assay provider.; assay type: functional
T1 sequence (O43614 whole entry): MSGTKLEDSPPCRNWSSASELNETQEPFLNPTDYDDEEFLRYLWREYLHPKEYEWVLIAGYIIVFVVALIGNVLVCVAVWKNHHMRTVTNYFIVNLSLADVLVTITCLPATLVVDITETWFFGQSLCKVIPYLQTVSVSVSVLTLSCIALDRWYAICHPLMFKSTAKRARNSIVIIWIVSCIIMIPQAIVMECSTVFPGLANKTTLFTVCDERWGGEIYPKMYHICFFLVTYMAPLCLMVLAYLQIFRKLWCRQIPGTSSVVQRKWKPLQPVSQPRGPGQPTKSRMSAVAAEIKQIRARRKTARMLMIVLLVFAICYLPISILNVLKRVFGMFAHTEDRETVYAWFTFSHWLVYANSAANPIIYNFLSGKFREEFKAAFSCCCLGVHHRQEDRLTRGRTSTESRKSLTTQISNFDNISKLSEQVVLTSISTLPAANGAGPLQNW

[5] = biological target: T2, Orexin/Hypocretin receptor type 1 (Homo sapiens, UniProt O43613); assay: (§2) Fluorescence-based cell-based high throughput dose response assay for antagonists of the orexin 1 receptor (OX1R; HCRTR1). [Related pubchem assays (depositor defined):AID434989, AID435008, AID463079, AID485270, AID492963, AID492964, AID492965, AID493232, AID504717, AID504718]; assay type: functional
T2 sequence (O43613 whole entry): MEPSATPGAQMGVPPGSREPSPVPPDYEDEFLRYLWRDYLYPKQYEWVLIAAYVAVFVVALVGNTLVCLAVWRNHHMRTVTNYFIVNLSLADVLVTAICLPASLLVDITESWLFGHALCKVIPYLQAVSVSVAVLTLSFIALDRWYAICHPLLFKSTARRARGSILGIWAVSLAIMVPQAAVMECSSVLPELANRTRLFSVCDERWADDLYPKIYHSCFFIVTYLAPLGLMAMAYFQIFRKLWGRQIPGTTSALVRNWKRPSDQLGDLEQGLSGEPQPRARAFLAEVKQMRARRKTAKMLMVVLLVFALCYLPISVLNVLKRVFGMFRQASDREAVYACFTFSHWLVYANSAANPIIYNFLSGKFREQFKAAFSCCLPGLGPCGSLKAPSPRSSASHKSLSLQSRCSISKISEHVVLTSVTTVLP

Orexin receptor type 2 [6] = biological target: T1, Orexin receptor type 2; assay: Counterscreen assay for antagonists of the orexin 1 receptor (OX1R; HCRTR1): Homogeneous Time Resolved Fluorescence (HTRF)-based cell-based dose response assay for antagonists of the orexin 2 receptor (OX2R; HCRTR2), run by assay provider.; assay type: functional
[7] = biological target: T2, Orexin/Hypocretin receptor type 1; assay: as §2, with “Homogeneous Time Resolved Fluorescence (HTRF)-based” for “Fluorescence-based”; assay type: functional
[8] = as §1, with “Fluorescence-based” for “Homogeneous time resolved fluorescence (HTRF)-based”, “cell-based high throughput” for “cell-based”, “CHO” for “CHO-K1”; assay type: functional

Structure (SMILES)	EC50 [1]	EC50 [2]	EC50 [3]	IC50 (SUMO-activating enzyme)	IC50 (CHO-K1)	IC50 (Orexin receptor type 2 [4])	IC50 [5]	IC50 (Orexin receptor type 2 [6])	IC50 [7]	IC50 [8]
C=CCn1c(N)c(C(=O)Nc2ccccc2)c2nc3ccccc3nc21	> 120 µM (not active)	22 µM (active)	> 120 µM (not active)	14.5 µM (active)						
COc1ccc2c(c1)nc(O)c1sc3ccccc3c12					> 66.2 µM (inactive)	5.5 µM (active)	7.77 µM (active)	> 50 µM (inactive)	2.49 µM (active)	> 49.7 µM (inactive)
CNc1nc(Nc2ccc(C)c(Cl)c2)c2cnn(C)c2n1					> 66.2 µM (inactive)	> 88.8 µM (inactive)	14.4 µM (inactive)	> 50 µM (inactive)	2.07 µM (active)	> 49.8 µM (inactive)
